Results on one molecule are retold here after ChEMBL document CHEMBL1201861, “Genomics of Drug Sensitity in Cancer screening data, Wellcome Trust Sanger Institute”.

Structures are written as SMILES.

Common to all, as to assay: cells
One test has as its system DOHH-2. The test is classed as functional, cell-based, Homo sapiens. The following applies: Homo sapiens, DOHH-2.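 Also: growth inhibition of human DOHH-2 cells, read out with a cell viability assay.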
The test system of the next test is TE-8. Type of test: functional, cell-based, Homo sapiens. The following applies: Homo sapiens, TE-8.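 Also: growth inhibition of TE-8 cells, measured with a cell viability readout.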
For a further test, the system named is NOS-1. Type of test: functional, cell-based, Homo sapiens. The following applies: Homo sapiens, NOS-1.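 Also: growth inhibition of the human NOS-1 cell line, read out with a cell viability assay.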
For another test, the system named is NB69. Type of test: functional, cell-based, Homo sapiens. The note with it: Homo sapiens, NB69.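 Also: growth inhibition of NB69 cells, determined by a cell viability assay.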
The test system of another test is KM12. Type of test: functional, cell-based, Homo sapiens. The following applies: Homo sapiens, KM12.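 Also: KM12 cell growth inhibition, read out with a cell viability assay.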
Another test relates to KYSE-270. The test is classed as functional, cell-based. The following applies: Homo sapiens.
Another test has as its system NTERA-2-cl-D1. The test is classed as functional, cell-based, Homo sapiens. The note with it: Homo sapiens, NTERA-2-cl-D1.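 Also: inhibition of cell growth, measured with a cell viability assay.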

Description for DOHH-2: SANGER: Inhibition of human DOHH-2 cell growth in a cell viability assay.
Description for KM12: SANGER: Inhibition of human KM12 cell growth in a cell viability assay.
Description for KYSE-270: SANGER: Inhibition of human KYSE-270 cell growth in a cell viability assay.
Description for NB69: SANGER: Inhibition of human NB69 cell growth in a cell viability assay.
Description for NOS-1: SANGER: Inhibition of human NOS-1 cell growth in a cell viability assay.
Description for NTERA-2-cl-D1: SANGER: Inhibition of human NTERA-S-cl-D1 cell growth in a cell viability assay.
Description for TE-8: SANGER: Inhibition of human TE-8 cell growth in a cell viability assay.

Regarding `CO[C@@H]1[C@H](N(C)C(=O)c2ccccc2)C[C@H]2O[C@]1(C)n1c3ccccc3c3c4c(c5c6ccccc6n2c5c31)C(=O)NC4` [MIDOSTAURIN], the IC50 was > 512 nM with DOHH-2; > 512 nM with TE-8; > 512 nM in the test on NOS-1; > 512 nM in the test on NB69; 92.8 nM in the test with KM12; 168 nM with KYSE-270. 209 nM corresponded to half-maximal inhibition in the test with NTERA-2-cl-D1 (IC50).

Usually IC50 stands for the concentration needed to halve the response being measured.
